Test results as given in US20230234942A1, “COMPOUNDS FOR TREATING HUNTINGTON'S DISEASE” (PTC Therapeutics, Inc., priority 2020, published 2023).

Test system: Endogenous Huntingtin Protein
Experiment: Endogenous Huntingtin Protein Assay (ELISA-based MSD electrochemiluminescence)
Format: cell-based
Method in brief: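 Endogenous huntingtin measured on MSD plates coated with MW1 (polyglutamine-expanded) or MAB2166 capture antibody; lysates bound overnight at 4 °C. Signal developed with #56565 rabbit monoclonal and goat anti-rabbit SULFO-TAG (0.25 µg/mL, 1 h RT each), electrochemiluminescence read on SI 6000.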

[1] = Table 2, MSD plates coated with MW1 (expanded polyglutamine) or MAB2166 capture antibody, "inactive" = result above the detection limit of the assay

IC50 [1] [nM]	IC50 (Table 3, selected compounds from WO/2019/191229 A1, same MSD assay) [nM]	SMILES
2.1		Oc1cc(-c2c[nH]nc2F)ccc1-c1cnc(N2CCN[C@@H](C3CC3)C2)nn1 [Cpd 1, 2-{3-[(3S)-3-cyclopropylpiperazin-1-yl]-1,2,4-triazin-6-yl}-5-(3-fluoro-1H-pyrazol-4-yl)phenol]
336		C[C@@H]1CN(c2ncc(-c3ccc(-n4nccn4)cc3O)nn2)C[C@H](C)N1C [Cpd 52, 5-(2H-1,2,3-triazol-2-yl)-2-{3-[(3R,5S)-3,4,5-trimethylpiperazin-1-yl]-1,2,4-triazin-6-yl}phenol]
29		Oc1cc(-c2ccncc2)ccc1-c1cnc(N2CCN[C@@H](C3CC3)C2)nn1 [Cpd 177, 2-{3-[(3S)-3-cyclopropylpiperazin-1-yl]-1,2,4-triazin-6-yl}-5-(pyridin-4-yl)phenol]
68.2		CC(C)[C@@H]1CN(c2ncc(-c3ccc(-c4cn[nH]c4)cc3O)nn2)CCN1 [Cpd 40, 2-{3-[(3R)-3-(propan-2-yl)piperazin-1-yl]-1,2,4-triazin-6-yl}-5-(1H-pyrazol-4-yl)phenol]
789		Cc1ccc(-c2ccc(-c3cnc(N4CCN[C@@H](C(C)C)C4)nn3)c(O)c2)cn1 [Cpd 160, 5-(6-methylpyridin-3-yl)-2-{3-[(3S)-3-(propan-2-yl)piperazin-1-yl]-1,2,4-triazin-6-yl]phenol]
9.5		C[C@@H]1CN(c2ncc(-c3ccc(-c4c[nH]nc4F)cc3O)nn2)C[C@H](C2CCC2)N1 [Cpd 236, 2-{3-[(3S,5R)-3-cyclobutyl-5-methylpiperazin-1-yl]-1,2,4-triazin-6-yl}-5-(3-fluoro-1H-pyrazol-4-yl)phenol]
	91.4	Oc1cc(-c2cn[nH]c2)ccc1-c1cnc(N2CCN3CCC[C@H]3C2)nn1 [WO/2019/191229 A1 Cpd 116, reference compound]
678		Cc1cc2nc(-c3ccc(-c4cnc(N5C[C@@H](C)N[C@@H](C)C5)nn4)c(O)c3)sc2c(C)n1 [Cpd 116, 2-{3-[(3R,5S)-3,5-dimethylpiperazin-1-yl]-1,2,4-triazin-6-yl}-5-(4,6-dimethyl[1,3]thiazolo[5,4-c]pyridin-2-yl)phenol]
1440		Oc1cc(-c2cn[nH]c2)ccc1-c1cnc(N2CCNC(c3ccccc3)C2)nn1 (stereo not shown) [Cpd 61, 2-[3-(3-phenylpiperazin-1-yl)-1,2,4-triazin-6-yl]-5-(1H-pyrazol-4-yl)phenol]
21.3		Cn1nnc2ccc(-c3ccc(-c4cnc(N5CCN[C@@H](C6CC6)C5)nn4)c(O)c3)nc21 [Cpd 173, 2-{3-[(3S)-3-cyclopropylpiperazin-1-yl]-1,2,4-triazin-6-yl}-5-(3-methyl-3H-[1,2,3]triazolo[4,5-b]pyridin-5-yl)phenol]
5.3		C[C@@H]1CN(c2ncc(-c3ccc(-c4cc(C#N)c5nn(C)cc5c4)cc3O)nn2)C[C@H](C)N1 [Cpd 80, 5-(4-{3-[(3R,5S)-3,5-dimethylpiperazin-1-yl]-1,2,4-triazin-6-yl}-3-hydroxyphenyl)-2-methyl-2H-indazole-7-carbonitrile]
2.1		CC1CN(c2ncc(-c3ccc(-c4cc(F)c5nn(C)cc5c4)cc3O)nn2)CCN1 (stereo not shown) [Cpd 67, 5-(7-fluoro-2-methyl-2H-indazol-5-yl)-2-[3-(3-methylpiperazin-1-yl)-1,2,4-triazin-6-yl]phenol]
56.2		C=CC1CN(c2ncc(-c3ccc(-c4cn[nH]c4)cc3O)nn2)CCN1 (stereo not shown) [Cpd 38, 2-[3-(3-ethenylpiperazin-1-yl)-1,2,4-triazin-6-yl]-5-(1H-pyrazol-4-yl)phenol]
14.1		Cn1nnc2nc(-c3ccc(-c4cnc(N5CCN[C@@H](C6CC6)C5)nn4)c(O)c3)ccc21 [Cpd 171, 2-{3-[(3S)-3-cyclopropylpiperazin-1-yl]-1,2,4-triazin-6-yl}-5-(1-methyl-1H-[1,2,3]triazolo[4,5-b]pyridin-5-yl)phenol]
88.3		COc1cc(-c2ccc(-c3cnc(N4C[C@@H](C5CC5)N[C@@H](C)C4)nn3)c(O)c2)nc(OC)n1 [Cpd 220, 2-{3-[(3R,5S)-3-cyclopropyl-5-methylpiperazin-1-yl]-1,2,4-triazin-6-yl}-5-(2,6-dimethoxypyrimidin-4-yl)phenol]
16.8		Cc1cn2cc(-c3ccc(-c4cnc(N5CCN(C)[C@H](C)C5)nn4)c(O)c3)cc(F)c2n1 [Cpd 107, 2-{3-[(3R)-3,4-dimethylpiperazin-1-yl]-1,2,4-triazin-6-yl}-5-(8-fluoro-2-methylimidazo[1,2-a]pyridin-6-yl)phenol]

IC50 [1] [nM]	IC50 (Table 3, selected compounds from WO/2019/191229 A1, same MSD assay) [nM]	SMILES
9.1		Cc1ncc2cc(-c3ccc(-c4cnc(N5CCN[C@@H](C6CC6)C5)nn4)c(O)c3)ccn12 [Cpd 195, 2-{3-[(3S)-3-cyclopropylpiperazin-1-yl]-1,2,4-triazin-6-yl}-5-(3-methylimidazo[1,5-a]pyridin-7-yl)phenol]
619		C[C@H]1CN(c2ncc(-c3ccc(-c4cn[nH]c4)cc3O)nn2)[C@@H](C)CN1 [Cpd 176, 2-{3-[(2S,5S)-2,5-dimethylpiperazin-1-yl]-1,2,4-triazin-6-yl}-5-(1H-pyrazol-4-yl)phenol]
4.4		CC(C)[C@H]1CN(c2ncc(-c3ccc(-c4c[nH]nc4F)cc3O)nn2)CCN1 [Cpd 3, 5-(3-fluoro-1H-pyrazol-4-yl)-2-{3-[(3S)-3-(propan-2-yl)piperazin-1-yl]-1,2,4-triazin-6-yl}phenol]
23.4		CCC1CN(c2ncc(-c3ccc(-c4cn[nH]c4)cc3O)nn2)CCN1 (stereo not shown) [Cpd 24, 2-[3-(3-ethylpiperazin-1-yl)-1,2,4-triazin-6-yl]-5-(1H-pyrazol-4-yl)phenol]
25.4		CC(C)[C@H]1CN(c2ncc(-c3ccc(-n4ncc5cncnc54)cc3O)nn2)CCN1 [Cpd 162, 2-{3-[(3S)-3-(propan-2-yl)piperazin-1-yl]-1,2,4-triazin-6-yl}-5-(1H-pyrazolo[3,4-d]pyrimidin-1-yl)phenol]
8.7		[2H]C([2H])([2H])Oc1cc(-c2ccc(-c3cnc(N4CCNC(C(C)(C)O)C4)nn3)c(O)c2)ncn1 (stereo not shown) [Cpd 8, 2-{3-[3-(2-hydroxypropan-2-yl)piperazin-1-yl]-1,2,4-triazin-6-yl}-5-{6-[(^2H3)methyloxy]pyrimidin-4-yl}phenol]
14.1		[2H]C([2H])([2H])Oc1cc(-c2ccc(-c3cnc(N4CCN[C@@H](C(C)(C)C)C4)nn3)c(O)c2)ncn1 [Cpd 17, 2-{3-[(3S)-3-tert-butylpiperazin-1-yl]-1,2,4-triazin-6-yl}-5-{6-[(^2H3)methyloxy]pyrimidin-4-yl}phenol]
49		Cc1cnn(-c2ccc(-c3cnc(N4CCN[C@@H](C(C)C)C4)nn3)c(O)c2)n1 [Cpd 184, 5-(4-methyl-2H-1,2,3-triazol-2-yl)-2-{3-[(3S)-3-(propan-2-yl)piperazin-1-yl]-1,2,4-triazin-6-yl}phenol]
876		Oc1cc(-c2cn[nH]c2)ccc1-c1cnc(N2CCN3C[C@H](O)C[C@H]3C2)nn1 [Cpd 59, (7R,8aS)-2-{6-[2-hydroxy-4-(1H-pyrazol-4-yl)phenyl]-1,2,4-triazin-3-yl}octahydropyrrolo[1,2-a]pyrazin-7-ol]
19.3		Cc1ncn2cc(-c3ccc(-c4cnc(N5CCN[C@@H](C6CC6)C5)nn4)c(O)c3)ccc12 [Cpd 194, 2-{3-[(3S)-3-cyclopropylpiperazin-1-yl]-1,2,4-triazin-6-yl}-5-(1-methylimidazo[1,5-a]pyridin-6-yl)phenol]
22.1		Cc1nc2c(C3CC3)nc(-c3ccc(-c4cnc(N5C[C@@H](C)N[C@@H](C)C5)nn4)c(O)c3)cn2n1 [Cpd 109, 5-(8-cyclopropyl-2-methyl[1,2,4]triazolo[1,5-a]pyrazin-6-yl)-2-{3-[(3R,5S)-3,5-dimethylpiperazin-1-yl]-1,2,4-triazin-6-yl}phenol]
4.9		CCN1CCN(c2ncc(-c3ccc(-c4cc(F)c5nc(C)cn5c4)cc3O)nn2)CC1 [Cpd 77, 2-[3-(4-ethylpiperazin-1-yl)-1,2,4-triazin-6-yl]-5-(8-fluoro-2-methylimidazo[1,2-a]pyridin-6-yl)phenol]
147		Cc1cnc(-c2ccc(-c3cnc(N4CCN[C@@H](C5CC5)C4)nn3)c(O)c2)o1 [Cpd 232, 2-{3-[(3S)-3-cyclopropylpiperazin-1-yl]-1,2,4-triazin-6-yl}-5-(5-methyl-1,3-oxazol-2-yl)phenol]
904		CC(C)[C@H]1CN(c2ncc(-c3ccc(-c4nnc(C(F)F)s4)cc3O)nn2)CCN1 [Cpd 205, 5-[5-(difluoromethyl)-1,3,4-thiadiazol-2-yl]-2-{3-[(3S)-3-(propan-2-yl)piperazin-1-yl]-1,2,4-triazin-6-yl}phenol]
646		CC(C)[C@H]1CN(c2ncc(-c3ccc(-c4nc(C#N)cs4)cc3O)nn2)CCN1 [Cpd 273, 2-(3-hydroxy-4-{3-[(3S)-3-(propan-2-yl)piperazin-1-yl]-1,2,4-triazin-6-yl}phenyl)-1,3-thiazole-4-carbonitrile]
